Results reported in patent publication US20230027066A1 (Urovant Sciences GmbH, priority 2019, published 2023).
Read-outs that look alike come from different tables or passages of the source.

What was measured:
CYP2D6 = CYP2D6 (Homo sapiens, UniProt P10635); test: drug interaction study of vibegron and metoprolol succinate (moderately sensitive CYP2D6 substrate); assay type: in vivo; design: from tissue; host or cells: in vivo, healthy adult human subjects (endogenous enzyme)
[1] = QT Study/Label April 2018, cited from earlier work
[2] = human, plasma, metoprolol 100 mg alone
[3] = metoprolol 100 mg, vibegron 75 mg
[4] = 50 mg repeat-dose, healthy subjects

Chain of CYP2D6 (P10635 whole entry): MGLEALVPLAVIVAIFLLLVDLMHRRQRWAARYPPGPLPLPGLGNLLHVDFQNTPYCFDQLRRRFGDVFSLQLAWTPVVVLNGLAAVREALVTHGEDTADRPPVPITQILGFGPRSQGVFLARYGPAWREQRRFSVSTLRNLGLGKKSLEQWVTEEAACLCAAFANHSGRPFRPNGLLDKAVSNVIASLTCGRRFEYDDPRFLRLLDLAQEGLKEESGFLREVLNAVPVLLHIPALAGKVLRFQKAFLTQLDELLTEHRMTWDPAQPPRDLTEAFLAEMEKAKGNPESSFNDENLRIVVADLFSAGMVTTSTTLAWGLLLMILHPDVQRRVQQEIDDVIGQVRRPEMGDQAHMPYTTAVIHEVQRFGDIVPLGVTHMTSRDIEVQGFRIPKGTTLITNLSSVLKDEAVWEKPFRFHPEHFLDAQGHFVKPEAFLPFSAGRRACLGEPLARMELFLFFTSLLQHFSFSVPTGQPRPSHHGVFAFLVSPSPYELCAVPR

COCCc1ccc(OCC(O)CNC(C)C)cc1 (stereo not drawn) [Metoprolol, metoprolol succinate]
AUC(0-inf) (CYP2D6; [2]): 0.384 µg·h/mL | Cmax (CYP2D6; [2]): 0.0219 µg/mL | half-life (CYP2D6; human, plasma, metoprolol 100 mg alone, read-out: t1/2, GM (% CV) (converted)): 9.5 h | AUC0-∞, ratio of GLS mean metoprolol + vibegron/metoprolol alone (CYP2D6; [3]): 1.40 | Cmax, ratio of GLS mean metoprolol + vibegron/metoprolol alone (CYP2D6; [3]): 1.49

Nc1nc(CC(=O)Nc2ccc(CCNC[C@H](O)c3ccccc3)cc2)cs1 [Mirabegron, mirabegron]
SBP change 24-hour average, placebo adjusted [1, 4]: +3.0 mmHg | SBP change Maximum mean, placebo adjusted [1, 4]: Maximum mean +4.0 mmHg | SBP change 24-hour average, placebo adjusted ([1]; 100 mg repeat-dose, healthy subjects): +5.5 mmHg | SBP change 24-hour average, placebo adjusted ([1]; 200 mg repeat-dose, healthy subjects): +9.7 mmHg | HR change Maximum mean, placebo adjusted ([1]; first of doses 50, 100, 200 mg repeat-dose (doses from the Doses line)): 6.7 bpm | HR change Maximum mean, placebo adjusted ([1]; second of doses 50, 100, 200 mg repeat-dose (doses from the Doses line)): 11 bpm | HR change Maximum mean, placebo adjusted ([1]; third of doses 50, 100, 200 mg repeat-dose (doses from the Doses line)): 17 bpm
